Reference: publication PMC6214985, “Potassium usnate, a water-soluble usnic acid salt, shows enhanced bioavailability and inhibits invasion and metastasis in colorectal cancer” (Scientific Reports, 2018)
Where “and” joins values, the source holds several entries; their conditions need not be identical. Equal entries are not always repeated.

Experiments:
[1] = system: CAPN1, CDC42, CFL1, IGF1, WASF1, and WASL in Caco2 cells; test: Cell motility-related gene expression (RT2 profiler PCR / qRT-PCR) in Caco2 cells; assay type: cell-based, human; conditions: same concentration for UA and KU
Method: The RT² Profiler™ PCR Array (330231, SA Biosciences, Qiagen, Courtaboeuf, France) was used to examine the expression patterns of 84 genes involved in human cell motility as previouslydescribed. The manufacturer’s instructions were strictly followed. Gene expression levels were analyzed using the web-based software ‘RT2 Profiler PCR Array Data Analysis version 3.5′. Six cell motility-related genes, including CAPN1, CDC42, CFL1, IGF1, WASF1, and WASL, were selected as candidates.
Quantitative RT-PCR (qRT-PCR) was performed as previously described. Briefly, total RNA ([…]) isolated from UA- or KU-treated Caco2 cells using RNAiso Plus (TaKaRa, Otsu, Shiga 520–2193, Japan) was used to synthesize cDNA using a M-MLV reverse transcriptase kit (Invitrogen, Carlsbad, CA, USA) and SYBR green (Enzynomics, Seoul, Korea). […]

[2] = system: CT26 cells expressing firefly luciferase (CT26-Fluc); test: Orthotopic liver metastasis model (CT26-Fluc, intrasplenic injection); assay type: in vivo, BALB/c mice; conditions: 5 or 10 mg/kg intraperitoneal
Method: Five-week-old male BALB/c mice with pathogen-free condition were obtained from Orient Company (Seongnam, Korea). According to the Guiding Principles in the Care and Use of Animals (DHEW publication, NIH 80–23), the handling of animals and all in vivo experiments were performed. The Chonnam National University Medical School Research Institutional Animal Care and Use Committee approved the experimental protocol.
A syngeneic mouse model of colorectal cancer metastasis to the liver was established by infusion of tumor cells into the portal system via intrasplenic injection. […] For optical live imaging in this model, a splenectomy was performed immediately after inoculation of tumor cell, and the firefly luciferase activity was analyzed at several time points with the Xenogen system. […] Weight of tumor was determined by subtracting the average weight of liver of normal mice (n = 4) from the weight of total tumor-bearing liver with addition of the weight of total extrahepatic tumors. […] To evaluate inhibition of tumor growth, mice were analyzed every 7 days with the use of optical imaging. […] Metastatic tumor nodules in the liver with a diameter of >1.0 mm were counted using a microscope, and a metastasis score was assigned based on nodule size as follows: 0 (no gross metastasis), 1 (tumor size >1 mm), and 10 (tumor size >5 mm). […]

[3] = system: Caco2, HCT116, and CT26 cells; test: Cell invasion assay (Boyden chamber); assay type: cell-based, human; mouse (CT26); conditions: 5 μM, 24 h, vs control
Method: Invasion assays were performed in Boyden chambers (Corning, New York, USA)[16]. A 120 μL Cells (2 × 10^6) suspended in medium (DMEM containing 0.2% BSA dissolved in PBS) treated with or without UA or KU were seeded in the upper transwell chamber (Corning, New York, USA) coated with gelatin. Then, fibronectin (10 μg/mL) was added into the lower chamber medium (400 μL) as a chemotactic agent.Then invaded cells adhering to the underneath of upper chamber were fixed and stained with the Diff Quik kit (Sysmex) after 24 h of incubation. The quantitation of the cells were performed under an upright microscope (5 fields/chamber). Each invasion assay was repeated in three independent experiments.

[4] = system: N-cadherin, Snail, Twist, Slug, and ZEB2 mRNA in Caco2 cells; test: qRT-PCR of EMT markers in Caco2 cells; assay type: cell-based, human; conditions: 5 μM
Method: Quantitative RT-PCR (qRT-PCR) was performed as previously described. Briefly, total RNA ([…]) isolated from UA- or KU-treated Caco2 cells using RNAiso Plus (TaKaRa, Otsu, Shiga 520–2193, Japan) was used to synthesize cDNA using a M-MLV reverse transcriptase kit (Invitrogen, Carlsbad, CA, USA) and SYBR green (Enzynomics, Seoul, Korea). The primers used for real-time PCR were as follows: E-cadherin (forward) 5′-[…]-3′ and (reverse) 5′-[…]-3′; N-cadherin (forward) 5′-[…]-3′ and (reverse) 5′-[…]-3′; Snail (forward) 5′-[…]-3′ and (reverse) 5′-tgggagacacatcggtcga-3′; Twist (forward) 5′-cgggagtccgcagtctta-3′ and (reverse) 5′-[…]-3′; Slug (forward) 5′-[…]-3′ and (reverse) 5′-[…]-3′; ZEB1(forward) 5′-atgacacaggaaaggaagg-3′ and (reverse) 5′-agcagtgtcttgttgtag-3′; ZEB2 (forward) 5′-caagaggcgcaaacaagcc-3′ and (reverse) 5′-[…]-3′; CAPN1 (forward) 5′-[…]-3′ and (reverse) 5′-[…]-3′; CDC42 (forward) 5′-[…]-3′ and (reverse) 5′-[…]-3′; CFL1 (forward) 5′-caaggatgccatcaagaa-3′ and (reverse) 5′-atccttagcctcctcgta-3′; IGF1 (forward) 5′-[…]-3′ and (reverse) 5′-[…]-3′; WASF1 (forward) 5′-[…]-3′ and (reverse) 5′-[…]-3′; WASL (forward) 5′-[…]-3′ and (reverse) 5′-[…]-3′; and GAPDH (forward) 5′-[…]-3′ and (reverse) 5′-[…]-3′. qRT-PCR reactions and analyses were performed using CFX (Bio-Rad, Hercules, CA, USA).

[5] = Water solubility by μSol Method; assay type: physicochemical; conditions: 25 °C, pH 7.4, μSol Method with DMSO stock solution
[6] = system: Twist, Snail, and Slug protein in Caco2 cells; test: Western blotting of EMT markers in Caco2 cells; assay type: cell-based, human; conditions: 24 h
Method: Cells treated with UA or KU for 24 h were washed twice with ice-cold PBS and lysed in lysisbuffer. Antibodies against E-cadherin (61018, BD Biosciences, San Diego, CA, USA), N-cadherin (610921, BD Biosciences), Snail/Slug (ab180714, Abcam, Cambridge, MA, USA), Twist (ab49254, Abcam), PARP (9542, Cell Signaling), Caspase-3 (9662, Cell Signaling), α-Tubulin (2125, Cell Signaling), and ZEB2 (HPA003456, Sigma) were detected with horseradish peroxidase-conjugated secondary antibody (Thermo Fisher Scientific, Waltham, MA, USA) with the use of Immobilon Western Chemiluminescent HRP Substrate Kit (Merck Millipore, Billerica, MA, USA) and luminescence imaging (Image Quant LAS 4000 mini). Multi-Gauge 3.0 was used to measure bands, and relative density was calculated based on the density of the α-tubulin bands in each sample. Expression of values were as arbitrary densitometric units corresponding to signal intensity.

[7] = Usnate distribution by LC-MS/MS after oral administration in CT26 syngeneic mouse tumor xenograft model; assay type: in vivo; conditions: 30 mg/kg oral, 16 h after dosing; CT26 xenograft mice
Method: Stock solutions (10 mM) of UA or KU were prepared by dissolution in DMSO. Stock standard solutions were stored at −20 °C. A working standard solution was prepared by dilution of the stock standard solution with a mixture of acetonitrile-water (1:1, v/v). The working standard solution was serially diluted to prepare a concentration series of 0.975, 3.9, 15.6, 62.5, 250, 1000, and 4000 nM in 50% acetonitrile.
Skin tumor xenografts were established using CT26 cells. After 7 days of inoculation and gross tumor formation, UA or KU at 30 mg/kg was administered orally, and tumor, liver, and plasma samples were collected after 16 h (n = 9 each). Mouse tumor and liver samples were homogenized in four volumes of ice-cold deionized water. Plasma and homogenized tissue samples were prepared for analysis in a 96-well cluster tube plate by protein precipitation. A volume of 30 µL of each sample was transferred to eight-well tube strips placed in an 8 × 12 rack (VWR, Emeryville, CA, USA). Four volumes of ice-cold extraction solution (acetonitrile) containing 4-methylumbelliferone (4-MUF, internal standard) were added and vortexed for 10 min. After sonication for 30 min, samples were placed on ice for 1 h. The 96-well cluster tube plate was centrifuged at 1000 × g for 10 min, and the supernatant was analyzed by LC-MS/MS. Standard samples were prepared in the same manner using a blank matrix.
Samples were analyzed with the Prominence UPLC system (Shimadzu, Japan) equipped with an API 3200 QTRAP™ LC-MS/MS system (Applied Biosystems, Foster City, CA, USA). Sample volumes of 10 μL were injected into an Aquity HSS UPLC C18 column (2.5 × 100 mm, 1.8 µm i.d.; Waters, Milford, MA, USA) and maintained at 30 °C. The column was pre-equilibrated in 100% v/v solvent A (deionized water containing 0.1% v/v formic acid)/0% v/v solvent B (acetonitrile containing 0.1% v/v formic acid) at a flow rate of 0.3 mL/min. […] The samples were analyzed via multiple reaction monitoring. […]

[8] = Hydrolytic stability at pH 4–7; assay type: physicochemical; conditions: pH range of 4–7, room temperature
Method: To determine whether the salt form of UA improved its bioavailability, the amount and concentration of usnate in the tumors, liver, and plasma of CT26 syngeneic tumor xenograft-bearing mice were measured by LC-MS/MS analysis. UA or KU was administered orally at a dose of 30 mg/kg at 7 days after CT26 cell inoculation, and the tumor tissues, liver tissues, and plasma of mice were collected after 16 h. […] Assuming that the density of tumor tissue is 0.1 to 1.0 mL/g, the concentration of usnate in tumor tissue is about 1.51 to 15.1 μM. Similarly, the amounts of usnate detected in liver tissues were 0.2788 ± 0.034 nmol/g of tissue for UA and 2.5789 ± 0.402 nmol/g of tissue for KU administered mice (Fig. 2C); the plasma concentrations of usnate were 0.181 ± 0.016 μM for UA and 1.690 ± 0.122 μM for KU administered mice (Fig. 2D).
Supplementary Figure 3. The stability of UA at the pH range of 4–7 in room temperature. (A) UA stability at pH 7.0. (B) UA stability at pH 6.8. (A) UA stability at pH 6.0. (A) UA stability at pH 4.5

[9] = system: colorectal cancer cells (HCT116, DLD1, SW480, HT29, SW620, Caco2, COLO320, CT26); test: Cell viability assay (MTT); assay type: cell-based, human; mouse (CT26); conditions: 48 h, 12.5–100 μM
Method: The human colorectal cancer cell lines HCT116, DLD1, SW480, HT29, SW620, Caco2, and COLO320, and the mouse colorectal cancer cell line CT26, were used in this study. Cells were cultured in DMEM supplemented with 10% fetal bovine serum and 1% Penicillin-Streptomycin solution under a humidified 5% CO2 atmosphere at 37 °C in an incubator.
Colorectal cancer cell growth and survival were detected with the colorimetric quantification of 3-(4,5-dimethylthiazol-2-yl)-2,5-diphenyltetrazolium bromide using the MTT assay. Briefly, cells were seeded and cultured in 96-well plates (2.5 × 10^3 cells/well), and treated with UA or KU for 48 h. After DMSO dissolution, the absorbance at 540 nm was determined using a microplate reader with Gen 5 (2.03.1) software (BioTek Eon, VT, USA).

## Usnic acid [UA]
[1]
  expression of cell motility-related genes CAPN1, CDC42, CFL1, IGF1, WASF1, and WASL: only CFL1 and IGF1 gene expression levels were decreased
[2]
  inhibitory effect on metastasis in vivo: no significant inhibitory effect on metastasis
[2]; six or ten times within 2 weeks, vs control
  metastasis score: did not detect a statistically significant difference
[3]
  number of invaded cells / invasion: lower in the UA-treated groups than in the control groups
[4]
  mRNA levels of N-cadherin, Snail, Twist, Slug, and ZEB2: significantly decreased
[5]
  water solubility: 52.2 ± 2.90 μM and 17.7 ± 0.20 μg/mL
[6]
  protein level of Twist, Snail, and Slug: downregulated
[7]
  amount of usnate in liver tissues: 0.2788 ± 0.034 nmol/g of tissue
  amount of usnate in tumor tissues: undetectable
  plasma concentration of usnate: 181 ± 16 nM
[8]
  hydrolytic stability: consistent
[9]
  cytotoxic activity (cell viability): showed cytotoxic activity in all the tested colorectal cancer cells
